The values below come from US20060177821A1, “Association of the h2 haplotype of the p2y12 receptor with an increased risk for thrombosis and peripheral arterial disease” (priority 2002, published 2006).

The test system of assay [1] is platelets. The assay is described as follows: ADP-induced platelet aggregation in platelet-rich plasma (photometric aggregometry). Conditions: 2 μM ADP; for maximal aggregation: mean±SEM; for maximal aggregation in response to ADP (median): citrated PRP, average of visits 1 and 2. It is filed as cell-based, human. As to the method: Venous blood was collected between 8:00 and 10:00 am, after an overnight fast, in tubes containing either 0.105 M sodium citrate (1 vol/9 vol) (BD Vacutainer®, Becton Dickinson, Le Pont de Claix, France) or 50 μg/mL lepirudine (Refludan®, Hoechst, Paris, France) using a 19-gauge needle and no tourniquet. The first 2 ml of blood was discarded. Platelet-rich plasma (PRP) was obtained by centrifugation at 1000 rpm for 10 min at room temperature. Autologous platelet-poor plasma, obtained by further centrifugation at 4000 rpm for 15 min, was used to adjust the platelet count of PRP to 250×10^9/L.
Aggregation studies were performed within 2 hours after blood collection. Aggregation was measured at 37° C. by using a photometric method on a four-channel aggregometer (Regulest® Amneville, France). A 280-μL aliquot of PRP was incubated for 3 min at 37° C. and then was stirred at 1100 rpm for 2 min before adding 20 μL of saline or ADP (Sigma-Aldrich, St Quentin Fallavier, France) at 1, 2 or 5 μM (final concentration). The platelet aggregation response was recorded for 5 min.

Assay [2] has as its system iloprost-stimulated cAMP accumulation in platelets (P2Y12 regulation of adenylate cyclase). The assay is described as follows: Inhibition by ADP of iloprost-stimulated cAMP accumulation in platelets (EIA). The assay is classed as cell-based. Conditions: Homo sapiens, Platelet, citrated PRP, read-out: inhibition of iloprost-stimulated cAMP formation; for inhibition at 1 µM: 1 μM ADP; for inhibition at 2 µM: 2 μM ADP; for inhibition at 5 µM: 5 μM ADP. As to the method:
Platelet cAMP content was measured in 20 selected subjects by incubating 270 μL of PRP with 10 μL of a solution of the stable prostacyclin analog iloprost (20 μg/L, final concentration) (Ilomédine®, Schering-Plough) for 1 min, with stirring, then adding 20 μL of saline or ADP (1, 2 or 5 μM). The reaction was stopped 3 min later by adding 20 μL of 12% trichloroacetic acid. CAMP was then extracted and measured with an enzyme immunoassay (EIA) (Amersham, Pharmacia Biotech, Orsay, France) according to the manufacturer's instructions, without knowledge of the subject's P2Y12 genotype.

[3] abbreviates: platelets from carriers of the H2 haplotype.
The mark [4] stands for this setting: platelets from non carriers of the H2 haplotype.

Where two headings read alike, the source gives them in different places.

For `Nc1ncnc2c1ncn2[C@@H]1O[C@H](COP(=O)(O)OP(=O)(O)O)[C@@H](O)[C@H]1O` [ADP, adenosine 5′-diphosphate], the maximal aggregation in assay [1] (citrate-anticoagulated PRP (low Ca++), 10 carriers of the H2 allele) is 71.5%±5.2%; in assay [1] (citrate-anticoagulated PRP (low Ca++), 10 non carriers of the H2 allele), 50.7%±7.2%; in assay [1] (hirudin-anticoagulated PRP (physiological Ca++), 10 carriers of the H2 allele), 53.8%±3.9%; in assay [1] (hirudin-anticoagulated PRP (physiological Ca++), 10 non carriers of the H2 allele) it was 42.8%±3.4%. Further, the “maximal aggregation in response to ADP (median)” value in assay [1] (subjects carrying no H2 alleles (H1/H1, n=74)) was found to be 34.7%; in assay [1] (subjects carrying one H2 allele (H1/H2, n=21)), 67.9%; in assay [1] (subjects carrying two H2 alleles (H2/H2, n=3)), 82.4%. Further, the values for the inhibition at 1 µM in assay [2] (setting [3]) and in assay [2] (setting [4]) were 31% and 13%, respectively. For the same compound, the inhibition (usually the drop in the measured response relative to a control, in per cent) at 2 µM in assay [2] (setting [3]) is 39%; in assay [2] (setting [4]) it was 31%. The inhibition at 5 µM came to 50% in assay [2] (setting [3]) and 37% in assay [2] (setting [4]).
